Experimental data as given in US11365199B2, “Pyrazole compounds as modulators of FSHR and uses thereof” (Merck Patent GmbH, priority 2013, dated 2022).
Read-outs that look alike come from different tables or passages of the source.

What was measured:
FSHR = molecular target: T1, FSHR (Homo sapiens, UniProt P23945); experiment: EC50 of cyclic AMP production in CHO FSHR cells + EC20 FSH (Assay A); format: cell-based
T1 construct: expressed in transfected cells; host or cells: CHO (Cho-FSHR-LUC-1-1-43)
T1 sequence (P23945 18-695): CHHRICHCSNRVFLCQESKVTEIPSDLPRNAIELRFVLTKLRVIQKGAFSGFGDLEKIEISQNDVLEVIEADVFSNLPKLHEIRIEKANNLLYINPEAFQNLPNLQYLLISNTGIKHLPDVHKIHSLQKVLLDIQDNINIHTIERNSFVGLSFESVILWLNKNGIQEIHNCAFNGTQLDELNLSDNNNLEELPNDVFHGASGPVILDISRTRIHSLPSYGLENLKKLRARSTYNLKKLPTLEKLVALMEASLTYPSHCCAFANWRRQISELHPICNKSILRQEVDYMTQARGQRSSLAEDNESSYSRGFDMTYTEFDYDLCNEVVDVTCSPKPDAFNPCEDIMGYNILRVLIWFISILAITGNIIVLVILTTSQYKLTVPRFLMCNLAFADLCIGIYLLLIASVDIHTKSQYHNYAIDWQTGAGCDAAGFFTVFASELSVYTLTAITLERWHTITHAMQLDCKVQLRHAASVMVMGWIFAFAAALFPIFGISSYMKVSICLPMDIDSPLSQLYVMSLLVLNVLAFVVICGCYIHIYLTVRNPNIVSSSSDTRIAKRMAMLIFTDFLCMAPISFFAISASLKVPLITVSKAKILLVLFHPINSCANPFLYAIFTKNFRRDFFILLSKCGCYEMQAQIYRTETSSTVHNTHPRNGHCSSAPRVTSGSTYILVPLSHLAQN
Procedure, shortened: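 cAMP HTRF read-out (665 nm/620 nm ratio) after 1 h at 37° C of Cho-FSHR-LUC cells treated with serially diluted test compound plus EC20 FSH ([…]) and IBMX (final 200 μM). Responses given as percent of maximal FSH-standard effect.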

[1] = molecular target: T2, follicle-stimulating hormone (FSH) receptor (Rattus norvegicus, UniProt P20395); experiment: Rat granulosa EC50 FSH (Assay B); format: cell-based
T2 construct: endogenous in cells; host or cells: primary rat granulosa cells
T2 sequence (P20395 18-692): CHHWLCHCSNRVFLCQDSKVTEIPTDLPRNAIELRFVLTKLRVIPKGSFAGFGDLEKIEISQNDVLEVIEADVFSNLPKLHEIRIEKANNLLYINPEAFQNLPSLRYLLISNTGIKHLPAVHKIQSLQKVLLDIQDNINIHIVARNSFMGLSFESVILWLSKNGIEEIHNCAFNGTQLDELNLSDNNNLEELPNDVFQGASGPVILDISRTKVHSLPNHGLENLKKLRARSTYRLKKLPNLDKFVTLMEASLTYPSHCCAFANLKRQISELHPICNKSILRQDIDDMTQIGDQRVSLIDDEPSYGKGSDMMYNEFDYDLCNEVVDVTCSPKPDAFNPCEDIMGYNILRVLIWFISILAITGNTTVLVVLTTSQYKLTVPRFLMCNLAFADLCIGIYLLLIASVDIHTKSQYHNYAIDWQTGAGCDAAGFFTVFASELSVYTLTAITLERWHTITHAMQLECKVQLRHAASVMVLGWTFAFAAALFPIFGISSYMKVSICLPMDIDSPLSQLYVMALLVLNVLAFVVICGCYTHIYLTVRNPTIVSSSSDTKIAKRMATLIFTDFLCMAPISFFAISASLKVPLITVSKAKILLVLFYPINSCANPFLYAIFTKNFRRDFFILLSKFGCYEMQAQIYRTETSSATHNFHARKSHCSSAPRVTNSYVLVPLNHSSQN
Procedure: Rat Granulosa EC50 FSH (Assay B)
The assay was performed pursuant to the teaching of Yanofsky et al. (2006) Allosteric activation of the follicle-stimulating hormone (FSH) receptor by selective, nonpeptide agonists (JBC 281(19): 13226-13233, which is incorporated by reference in the disclosure of the invention).

[2] = CHO FSHR cells + EC20 FSH, cAMP HTRF, read-out: Assay A: EC50 of cyclic AMP production
[3] = rat granulosa cells, read-out: Assay B: Rat granulosa EC50 FSH

Work on `COc1cc2c(cc1C=C(C)C)-c1c(c(C(=O)N(C)CCN3CCOC3=O)nn1-c1ccsc1)CO2` [Compound 23, 7-Methoxy-8-(2-methyl-propenyl)-1-thiophen-3-yl-1,4-dihydro-chromeno[4,3-c]pyrazole-3-carboxylic Acid methyl-[2-(2-oxo-oxazolidin-3-yl)-ethyl]-amide] yielded an EC50 (FSHR; [2]) of under 100 nM and an EC50 [1, 3] of under 100 nM.
In the case of `[2H]C([2H])([2H])OCCC1(N(C(=O)c2nn(-c3ccsc3)c3c2COc2cc(OC)c(-c4ccn(C)c4)cc2-3)C([2H])([2H])[2H])COC1` [Compound 198], the EC50 (FSHR; [2]) is reported as under 100 nM and the EC50 [1, 3] is reported as under 100 nM.
For `COc1cc2c(cc1C#N)-c1c(c(C(=O)N(C)C(C)(C)C)nn1-c1ccsc1)CO2` [Compound 12, 8-Cyano-7-methoxy-1-thiophen-3-yl-1,4-dihydro-chromeno[4,3-c]pyrazole-3-carboxylic Acid tert-butyl-methyl-amide], the EC50 (FSHR; [2]) was under 100 nM and the EC50 [1, 3] was 1000 to 5000 nM.
Work on `[2H]C([2H])([2H])N(CCN(C(=O)c1nn(-c2ccsc2)c2c1COc1cc(OC)c(CC(C)C)cc1-2)C([2H])([2H])[2H])C(C)=O` [Compound 82] yielded an EC50 (FSHR; [2]) of under 100 nM and an EC50 [1, 3] of 1000 to 5000 nM.
In the case of `COc1cc2c(cc1C=C(C)C)-c1c(c(C(=O)N(C)C(C)(C)C)nn1-c1ccsc1)CO2` [Compound 6, 7-Methoxy-8-(2-methyl-propenyl)-1-thiophen-3-yl-1,4-dihydro-chromeno[4,3-c]pyrazole-3-carboxylic Acid tert-butyl-methyl-amide], the EC50 (FSHR; [2]) is reported as under 100 nM and the EC50 [1, 3] is reported as 1000 to 5000 nM.
`COc1cc2c(cc1S(=O)(=O)C(C)C)-c1c(c(C(=O)N(C)C(C)(C)C)nn1-c1ccsc1)CO2` [Compound 79, 7-methoxy-8-(propane-2-sulfonyl)-1-thiophen-3-yl-1,4-dihydro-chromeno[4,3-c]pyrazole-3-carboxylic Acid tert-butyl-methyl-amide] was tested, and the EC50 (FSHR; [2]) was under 100 nM and the EC50 [1, 3] was over 5000 nM.
For `COc1cc2c(cc1-c1cc(C)nn1C)-c1c(c(C(=O)N3CCOCC3(C)C)nn1-c1ccsc1)CO2` [Compound 122, (3,3-Dimethyl-morpholin-4-yl)-[8-(2,5-dimethyl-2H-pyrazol-3-yl)-7-methoxy-1-thiophen-3-yl-1,4-dihydro-chromeno[4,3-c]pyrazol-3-yl]-methanone], the EC50 (FSHR; [2]) was under 100 nM and the EC50 [1, 3] was over 5000 nM.
`COc1cc2c(cc1C1=NC([Si](C)(C)C)N=N1)-c1c(c(C(=O)N3CCOCC3(C)C)nn1-c1ccsc1)CO2` (stereo not drawn) [Compound 139, (3,3-Dimethyl-morpholin-4-yl)-[7-methoxy-1-thiophen-3-yl-8-(5-trimethylsilanyl-5H-[1,2,4]triazol-3-yl)-1,4-dihydro-chromeno[4,3-c]pyrazol-3-yl]-methanone] was tested, and the EC50 (FSHR) was under 100 nM and the EC50 [1] was 1000 to 5000 nM.
`COc1cc2c(cc1-c1ccn(C)c1)-c1c(c(C(=O)N3CCN(C(=O)OC(C)(C)C)CC3(C)C)nn1-c1ccsc1)CO2` [Compound 157, 4-[7-Methoxy-8-(1-methyl-1H-pyrrol-3-yl)-1-thiophen-3-yl-1,4-dihydro-chromeno[4,3-c]pyrazole-3-carbonyl]-3,3-dimethyl-piperazine-1-carboxylic acid tert-butyl ester] was tested, and the EC50 (FSHR; [2]) was 100 to 1000 nM and the EC50 [1, 3] was 100 to 1000 nM.
Compound `[2H]C([2H])([2H])OCC1(N(C(=O)c2nn(-c3ccsc3)c3c2COc2cc(OC)c(-c4ccn(C)c4)cc2-3)C([2H])([2H])[2H])COC1` [Compound 113] has an EC50 (FSHR; [2]) of under 100 nM and an EC50 [1, 3] of 100 to 1000 nM.
`[2H]C([2H])([2H])n1cc(-c2cc3c(cc2OC)OCc2c(C(=O)N4CCOCC4(C)C)nn(-c4ccsc4)c2-3)cn1` [Compound 96] was tested, and the EC50 (FSHR; [2]) was under 100 nM and the EC50 [1, 3] was 100 to 1000 nM.
`COc1cc2c(cc1C1=CCOCC1)-c1c(c(C(=O)N3CCOCC3(C)C)nn1-c1ccsc1)CO2` [Compound 189, [8-(3,6-Dihydro-2H-pyran-4-yl)-7-methoxy-1-thiophen-3-yl-1,4-dihydro-chromeno[4,3-c]pyrazol-3-yl]-(3,3-dimethyl-morpholin-4-yl)-methanone] was tested, and the EC50 (FSHR; [2]) was under 100 nM and the EC50 [1, 3] was under 100 nM.
Work on `COc1cc2c(cc1-c1cnn(CC3OCCO3)c1)-c1c(c(C(=O)N3CCOCC3(C)C)nn1-c1ccsc1)CO2` [Compound 209, (3,3-Dimethyl-morpholin-4-yl)-[8-(1-[1,3]dioxolan-2-ylmethyl-1H-pyrazol-4-yl)-7-methoxy-1-thiophen-3-yl-1,4-dihydro-chromeno[4,3-c]pyrazol-3-yl]-methanone] yielded an EC50 (FSHR; [2]) of under 100 nM and an EC50 [1, 3] of under 100 nM.
In the case of `COC(=O)C1CCCN(C(=O)c2nn(-c3ccsc3)c3c2COc2cc(OC)c(C=C(C)C)cc2-3)CC1` (stereo not drawn) [Compound 17, 1-[7-Methoxy-8-(2-methyl-propenyl)-1-thiophen-3-yl-1,4-dihydro-chromeno[4,3-c]pyrazole-3-carbonyl]-azepane-4-carboxylic acid methyl ester], the EC50 (FSHR; [2]) is reported as 100 to 1000 nM and the EC50 [1, 3] is reported as over 5000 nM.
For `COc1cc2c(cc1-c1nc[nH]n1)-c1c(c(C(=O)N3CCOCC3(C)C)nn1-c1ccsc1)CO2` [Compound 161, (3,3-Dimethyl-morpholin-4-yl)-[7-methoxy-1-thiophen-3-yl-8-(5H-[1,2,4]triazol-3-yl)-1,4-dihydro-chromeno[4,3-c]pyrazol-3-yl]-methanone], the EC50 (FSHR; [2]) was under 100 nM and the EC50 [1, 3] was under 100 nM.
In the case of `COc1cc2c(cc1-c1cnn(CCN3CCOCC3)c1)-c1c(c(C(=O)N3CCOCC3(C)C)nn1-c1ccsc1)CO2` [Compound 202, (3,3-Dimethyl-morpholin-4-yl)-{7-methoxy-8-[1-(2-morpholin-4-yl-ethyl)-1H-pyrazol-4-yl]-1-thiophen-3-yl-1,4-dihydro-chromeno[4,3-c]pyrazol-3-yl}-methanone], the EC50 (FSHR; [2]) is reported as 100 to 1000 nM and the EC50 [1, 3] is reported as 100 to 1000 nM.
Compound `COC/C=C/c1cc2c(cc1OC)OCc1c(C(=O)N(C)C(C)(C)C)nn(-c3ccsc3)c1-2` [Compound 147, 7-Methoxy-8-((E)-3-methoxy-propenyl)-1-thiophen-3-yl-1,4-dihydro-chromeno[4,3-c]pyrazole-3-carboxylic acid tert-butyl-methyl-amide] has an EC50 (FSHR; [2]) of under 100 nM and an EC50 [1, 3] of 100 to 1000 nM.
Work on `COc1cc2c(cc1-c1cnn(C(=O)OC(C)(C)C)c1)-c1c(c(C(=O)N(C)C(C)(C)C)nn1-c1ccsc1)CO2` [Compound 20, 4-[3-(tert-Butyl-methyl-carbamoyl)-7-methoxy-1-thiophen-3-yl-1,4-dihydro-chromeno[4,3-c]pyrazol-8-yl]-pyrazole-1-carboxylic acid tert-butyl ester] yielded an EC50 (FSHR; [2]) of 100 to 1000 nM and an EC50 [1, 3] of 100 to 1000 nM.
In the case of `COc1cc2c(cc1OC(C)C)-c1c(c(C(=O)NCCCNC(=O)C3CCC3)nn1-c1ccsc1)CO2` [Compound 28, 8-Isopropoxy-7-methoxy-1-thiophen-3-yl-1,4-dihydro-chromeno[4,3-c]pyrazole-3-carboxylic Acid [3-(cyclobutanecarbonyl-amino)-propyl]-amide], the EC50 (FSHR; [2]) is reported as over 5000 nM and the EC50 [1, 3] is reported as over 5000 nM.
For `COc1cc2c(cc1-c1ccn(C)n1)-c1c(c(C(=O)N(C)C(C)(C)C)nn1-c1ccsc1)CO2` [Compound 63, 7-Methoxy-8-(1-methyl-1H-pyrazol-3-yl)-1-thiophen-3-yl-1,4-dihydro-chromeno[4,3-c]pyrazole-3-carboxylic acid tert-butyl-methyl-amide], the EC50 (FSHR; [2]) was under 100 nM and the EC50 [1, 3] was 100 to 1000 nM.
`COc1cc2c(cc1-c1ccn(C)n1)-c1c(c(C(=O)N3CCN(C)CC3(C)C)nn1-c1ccsc1)CO2` [Compound 159, [7-Methoxy-8-(1-methyl-1H-pyrazol-3-yl)-1-thiophen-3-yl-1,4-dihydro-chromeno[4,3-c]pyrazol-3-yl]-(2,2,4-trimethyl-piperazin-1-yl)-methanone] was tested, and the EC50 (FSHR; [2]) was under 100 nM and the EC50 [1, 3] was under 100 nM.
